One assay has as its target T1, human FPR1 (Homo sapiens, UniProt P21462).
T1 sequence (P21462 1-350): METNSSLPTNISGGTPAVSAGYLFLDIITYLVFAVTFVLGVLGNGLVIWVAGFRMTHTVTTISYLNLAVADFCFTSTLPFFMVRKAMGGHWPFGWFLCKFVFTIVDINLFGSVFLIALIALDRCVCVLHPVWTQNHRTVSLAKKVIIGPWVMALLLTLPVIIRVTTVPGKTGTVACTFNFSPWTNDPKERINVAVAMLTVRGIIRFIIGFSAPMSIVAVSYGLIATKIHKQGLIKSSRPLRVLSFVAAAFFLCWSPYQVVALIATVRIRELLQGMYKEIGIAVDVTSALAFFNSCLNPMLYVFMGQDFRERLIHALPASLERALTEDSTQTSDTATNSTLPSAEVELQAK
The assay can be described thus: FPR1 cyclic adenosine monophosphate (cAMP) assay. The assay is classed as cell-based. As to conditions: CHO cells overexpressing human FPR1; forskolin 10 μM; inhibition of cAMP production; HTRF; read-out: hFPR1 cAMP2 EC50. The essentials:
(§1)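 CHO cells overexpressing human FPR1 (4,000/well) or FPR2 (2,000/well) were incubated 30 min at room temperature with compound (0.020 nM to 100 μM, 1% DMSO), IBMX 200 μM, and forskolin at 10 μM (FPR1) or 5 μM (FPR2), all final. HTRF cAMP read-out; inhibition fitted by 4-parameter logistic equation.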
(In general: Cyclic AMP is a second messenger, typically raised through Gs and lowered through Gi signalling.)

The next assay has as its target T2, human FPR2 (Homo sapiens, UniProt P25090).
T2 sequence (P25090 1-351): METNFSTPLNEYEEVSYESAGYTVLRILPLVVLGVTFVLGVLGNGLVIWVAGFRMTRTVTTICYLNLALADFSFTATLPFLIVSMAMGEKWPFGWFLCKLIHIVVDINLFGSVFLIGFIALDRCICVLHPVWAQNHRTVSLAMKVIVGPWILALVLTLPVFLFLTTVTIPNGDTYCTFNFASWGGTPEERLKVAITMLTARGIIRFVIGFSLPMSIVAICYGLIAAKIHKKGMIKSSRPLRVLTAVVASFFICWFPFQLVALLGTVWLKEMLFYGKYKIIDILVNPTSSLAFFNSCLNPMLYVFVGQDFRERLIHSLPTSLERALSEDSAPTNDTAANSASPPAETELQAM
The assay can be described thus: FPR2 cyclic adenosine monophosphate (cAMP) assay. The assay is classed as cell-based. The settings on record: CHO cells overexpressing human FPR2; forskolin 5 μM; inhibition of cAMP production; HTRF; read-out: hFPR2 cAMP2 EC50. The procedure, abridged: as §1

For 20 molecules, EC50 results are on record in patent US12577206B2 (BRISTOL-MYERS SQUIBB COMPANY, priority 2020, dated 2026).

As a reminder, the EC50 is the concentration that produces a half-maximal response.

On to `COC(=O)c1cccc(-n2c(=O)c(NC(=O)c3ccc(OC(F)F)cc3)c(-c3c(F)cc(OC)cc3F)n2C)c1` [Example 113, methyl 3-[3-(2,6-difluoro-4-methoxyphenyl)-4-[4-(difluoromethoxy)benzamido]-2-methyl-5-oxo-2,5-dihydro-1H-pyrazol-1-yl]benzoate], for which the concentration for a half-maximal effect (EC50) at human FPR1 and at human FPR2 was 2 nM throughout.

Turning to `COc1cc(F)c(-c2c(NC(=O)c3ccc(OC(F)F)cc3)c(=O)n(-c3ccnc(OC)c3)n2C)c(F)c1` [Example 115, N-[5-(2,6-difluoro-4-methoxyphenyl)-2-(2-methoxypyridin-4-yl)-1-methyl-3-oxo-2,3-dihydro-1H-pyrazol-4-yl]-4-(difluoromethoxy)benzamide], the concentration for a half-maximal effect (EC50) at human FPR1 is 280 nM; on human FPR2, 5 nM.

Take `COc1cc(F)c(-c2c(NC(=O)c3ccc(OC(F)F)cc3)c(=O)n(-c3ccnc(Cl)c3)n2C)c(F)c1` [Example 116, N-[2-(2-chloropyridin-4-yl)-5-(2,6-difluoro-4-methoxyphenyl)-1-methyl-3-oxo-2,3-dihydro-1H-pyrazol-4-yl]-4-(difluoromethoxy)benzamide]: the EC50 on human FPR1 amounted to 2000 nM; at human FPR2 it was 21 nM.

For `COc1cc(-n2c(=O)c(NC(=O)c3ccc(OC(F)F)cc3)c(-c3c(F)cc(OC)cc3F)n2C)cc(C(F)(F)F)c1` [Example 117, N-[5-(2,6-difluoro-4-methoxyphenyl)-2-[3-methoxy-5-(trifluoromethyl)phenyl]-1-methyl-3-oxo-2,3-dihydro-1H-pyrazol-4-yl]-4-(difluoromethoxy)benzamide], the EC50 at human FPR1 is above 10000 nM; on human FPR2 it was 8 nM.

On to `CCOc1cccc(-n2c(=O)c(NC(=O)c3ccc(OC(F)F)cc3)c(-c3c(F)cc(OC)cc3F)n2C)c1` [Example 118, N-[5-(2,6-difluoro-4-methoxyphenyl)-2-(3-ethoxyphenyl)-1-methyl-3-oxo-2,3-dihydro-1H-pyrazol-4-yl]-4-(difluoromethoxy)benzamide], for which the EC50 at human FPR1 is 3 nM; on human FPR2, 6 nM.

Consider `COc1cc(F)c(-c2c(NC(=O)c3ccc(OC(F)F)cc3)c(=O)n(-c3cc(C#N)cc(C(C)C)c3)n2C)c(F)c1` [Example 119, N-{2-[3-cyano-5-(propan-2-yl)phenyl]-5-(2,6-difluoro-4-methoxyphenyl)-1-methyl-3-oxo-2,3-dihydro-1H-pyrazol-4-yl}-4-(difluoromethoxy)benzamide], for which the EC50 at human FPR1 was 65 nM; at human FPR2, 8 nM.

Consider `COC(=O)c1cc(Cl)cc(-n2c(=O)c(NC(=O)c3ccc(OC(F)F)cc3)c(-c3c(F)cc(OC)cc3F)n2C)c1` [Example 120, methyl 3-chloro-5-[3-(2,6-difluoro-4-methoxyphenyl)-4-[4-(difluoromethoxy)benzamido]-2-methyl-5-oxo-2,5-dihydro-1H-pyrazol-1-yl]benzoate], for which the EC50 worked out at 6000 nM on human FPR1 and 4 nM on human FPR2.

`COc1cc(C)cc(-n2c(=O)c(NC(=O)c3ccc(OC(F)F)cc3)c(-c3c(F)cc(OC)cc3F)n2C)c1` [Example 121, N-[5-(2,6-difluoro-4-methoxyphenyl)-2-(3-methoxy-5-methylphenyl)-1-methyl-3-oxo-2,3-dihydro-1H-pyrazol-4-yl]-4-(difluoromethoxy)benzamide]: the concentration giving a half-maximal response (EC50) is above 10000 nM at human FPR1 and 6 nM at human FPR2.

As to `CCOc1cc(-n2c(=O)c(NC(=O)c3ccc(OC(F)F)cc3)c(-c3c(F)cc(OC)cc3F)n2C)cc(C(F)(F)F)c1` [Example 122, N-[5-(2,6-difluoro-4-methoxyphenyl)-2-[3-ethoxy-5-(trifluoromethyl)phenyl]-1-methyl-3-oxo-2,3-dihydro-1H-pyrazol-4-yl]-4-(difluoromethoxy)benzamide], the EC50 at human FPR1 is above 10000 nM; on human FPR2, 21 nM.

On to `COc1cc(F)c(-c2c(NC(=O)c3ccc(OC(F)F)cc3)c(=O)n(-c3cc(Cl)cc(OC(F)(F)F)c3)n2C)c(F)c1` [Example 123, N-{2-[3-chloro-5-(trifluoromethoxy)phenyl]-5-(2,6-difluoro-4-methoxyphenyl)-1-methyl-3-oxo-2,3-dihydro-1H-pyrazol-4-yl}-4-(difluoromethoxy)benzamide], for which the EC50 was above 10000 nM on human FPR1 and 19 nM on human FPR2.

Turning to `COc1cc(Cl)cc(-n2c(=O)c(NC(=O)c3ccc(OC(F)F)cc3)c(-c3c(F)cc(OC)cc3F)n2C)c1` [Example 124, N-[2-(3-chloro-5-methoxyphenyl)-5-(2,6-difluoro-4-methoxyphenyl)-1-methyl-3-oxo-2,3-dihydro-1H-pyrazol-4-yl]-4-(difluoromethoxy)benzamide], the values for the concentration for a half-maximal effect (EC50) on human FPR1 and on human FPR2 were above 10000 nM and 4 nM, respectively.

As to `COc1cc(F)c(-c2c(NC(=O)c3ccc(OC(F)F)cc3)c(=O)n(-c3cc(F)cc(OC(C)C)c3)n2C)c(F)c1` [Example 125, N-[5-(2,6-difluoro-4-methoxyphenyl)-2-[3-fluoro-5-(propan-2-yloxy)phenyl]-1-methyl-3-oxo-2,3-dihydro-1H-pyrazol-4-yl]-4-(difluoromethoxy)benzamide], the results for the EC50 on human FPR1 and on human FPR2 were 2000 nM and 4 nM, respectively.

Take `COc1cc(F)c(-c2c(NC(=O)c3ccc(OC(F)F)cc3)c(=O)n(-c3cc(Cl)cc(C(=O)N(C)C)c3)n2C)c(F)c1` [Example 126, 3-chloro-5-[3-(2,6-difluoro-4-methoxyphenyl)-4-[4-(difluoromethoxy)benzamido]-2-methyl-5-oxo-2,5-dihydro-1H-pyrazol-1-yl]-N,N-dimethylbenzamide]: the EC50 came out at 1200 nM on human FPR1 and 9 nM at human FPR2.

In the case of `COc1cc(F)c(-c2c(NC(=O)c3ccc(OC(F)F)cc3)c(=O)n(-c3cc(Cl)cc(Cl)c3)n2C)c(F)c1` [Example 127, N-[2-(3,5-dichlorophenyl)-5-(2,6-difluoro-4-methoxyphenyl)-1-methyl-3-oxo-2,3-dihydro-1H-pyrazol-4-yl]-4-(difluoromethoxy)benzamide], the 50% effective concentration (EC50) on human FPR1 was above 10000 nM; on human FPR2, 8 nM.

Turning to `COC(=O)c1cncc(-n2c(=O)c(NC(=O)c3ccc(OC(F)F)cc3)c(-c3c(F)cc(OC)cc3F)n2C)c1` [Example 128, methyl 5-[3-(2,6-difluoro-4-methoxyphenyl)-4-[4-(difluoromethoxy)benzamido]-2-methyl-5-oxo-2,3-dihydro-1H-pyrazol-1-yl]pyridine-3-carboxylate], the results for the concentration giving a half-maximal response (EC50) on human FPR1 and on human FPR2 were 19 nM and 7 nM, respectively.

With `COc1cncc(-n2c(=O)c(NC(=O)c3ccc(OC(F)F)cc3)c(-c3c(F)cc(OC)cc3F)n2C)c1` [Example 129, N-[5-(2,6-difluoro-4-methoxyphenyl)-2-(5-methoxypyridin-3-yl)-1-methyl-3-oxo-2,3-dihydro-1H-pyrazol-4-yl]-4-(difluoromethoxy)benzamide], the concentration giving a half-maximal response (EC50) is 2200 nM at human FPR1 and 24 nM on human FPR2.

As to `COc1cc(F)c(-c2c(NC(=O)c3ccc(OC(F)F)cc3)c(=O)n(-c3cncc(Cl)c3)n2C)c(F)c1` [Example 130, N-[2-(5-chloropyridin-3-yl)-5-(2,6-difluoro-4-methoxyphenyl)-1-methyl-3-oxo-2,3-dihydro-1H-pyrazol-4-yl]-4-(difluoromethoxy)benzamide], the half-maximal effective concentration (EC50) on human FPR1 was found to be 1900 nM; at human FPR2 it was 20 nM.

With `COc1cc(F)c(-c2c(NC(=O)c3ccc(OC(F)F)cc3)c(=O)n(-c3cc(Cl)cc(C(F)(F)F)c3)n2C)c(F)c1` [Example 131, N-{2-[3-chloro-5-(trifluoromethyl)phenyl]-5-(2,6-difluoro-4-methoxyphenyl)-1-methyl-3-oxo-2,3-dihydro-1H-pyrazol-4-yl}-4-(difluoromethoxy)benzamide], the EC50 was above 10000 nM at human FPR1 and 11 nM on human FPR2.

For the molecule `COc1cc(F)cc(-n2c(=O)c(NC(=O)c3ccc(OC(F)F)cc3)c(-c3c(F)cc(OC)cc3F)n2C)c1` [Example 132, N-[5-(2,6-difluoro-4-methoxyphenyl)-2-(3-fluoro-5-methoxyphenyl)-1-methyl-3-oxo-2,3-dihydro-1H-pyrazol-4-yl]-4-(difluoromethoxy)benzamide], the EC50 on human FPR1 came to 83 nM; on human FPR2, 6 nM.

With `CCOC(=O)c1cc(F)cc(-n2c(=O)c(NC(=O)c3ccc(OC(F)F)cc3)c(-c3c(F)cc(OC)cc3F)n2C)c1` [Example 133, ethyl 3-[3-(2,6-difluoro-4-methoxyphenyl)-4-[4-(difluoromethoxy)benzamido]-2-methyl-5-oxo-2,5-dihydro-1H-pyrazol-1-yl]-5-fluorobenzoate], the results for the concentration for a half-maximal effect (EC50) on human FPR1 and at human FPR2 were 550 nM and 3 nM, respectively.
